Test results published in BindingDB's records for doi:10.1074/jbc.M110.139634 (French Alternative Energies and Atomic Energy Commission, 2010).

How the values were obtained:
Experiment in all cases: Enzyme Assay
Conditions in all cases: pH 6.8; 25 °C
[1] = target: 72 kDa type IV collagenase (Homo sapiens, UniProt P08253)
Excerpt: (§1) Enzyme assay using matrix metalloproteinases.

[2] = target: Angiotensin-converting enzyme (Homo sapiens, UniProt P12821)
Excerpt: as §1

Collagenase 3 = Collagenase 3 (Homo sapiens, UniProt P45452)
Excerpt: as §1

[3] = target: T1, Disintegrin and metalloproteinase domain-containing protein 17 [215-477,S266A,N452Q] (Homo sapiens, UniProt P78536, N452Q/S266A)
T1 construct: 215-477
Excerpt: as §1

Interstitial collagenase = target: T2, Interstitial collagenase (Homo sapiens, UniProt P03956)
T2 sequence (P03956 whole entry): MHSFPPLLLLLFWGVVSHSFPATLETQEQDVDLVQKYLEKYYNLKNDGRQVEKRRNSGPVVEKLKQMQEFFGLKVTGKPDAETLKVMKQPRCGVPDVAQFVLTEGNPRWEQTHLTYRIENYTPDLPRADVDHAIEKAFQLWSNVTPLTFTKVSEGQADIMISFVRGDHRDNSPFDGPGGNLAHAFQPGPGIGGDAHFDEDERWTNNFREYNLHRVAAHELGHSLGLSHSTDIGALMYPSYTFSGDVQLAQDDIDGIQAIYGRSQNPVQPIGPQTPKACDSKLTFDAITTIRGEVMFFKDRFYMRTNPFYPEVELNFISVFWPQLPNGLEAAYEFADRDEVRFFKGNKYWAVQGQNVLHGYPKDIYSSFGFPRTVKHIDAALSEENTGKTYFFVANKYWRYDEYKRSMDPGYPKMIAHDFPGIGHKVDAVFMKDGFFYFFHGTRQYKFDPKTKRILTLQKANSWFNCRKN
Excerpt: as §1

[4] = target: Macrophage metalloelastase (Homo sapiens, UniProt P39900)
Excerpt: as §1

Matrilysin = target: T3, Matrilysin (Homo sapiens, UniProt P09237)
T3 sequence (P09237 whole entry): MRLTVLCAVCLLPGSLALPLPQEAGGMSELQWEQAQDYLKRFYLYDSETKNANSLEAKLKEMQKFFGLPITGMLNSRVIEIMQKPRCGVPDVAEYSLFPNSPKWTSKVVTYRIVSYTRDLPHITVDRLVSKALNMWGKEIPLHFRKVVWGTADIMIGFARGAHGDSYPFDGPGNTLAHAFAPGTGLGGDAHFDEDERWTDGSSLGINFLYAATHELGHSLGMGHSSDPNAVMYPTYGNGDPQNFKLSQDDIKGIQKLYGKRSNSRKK
Excerpt: as §1

[5] = target: Matrix metalloproteinase-14 (Homo sapiens, UniProt P50281)
Excerpt: as §1

[6] = target: Matrix metalloproteinase-9 (Homo sapiens, UniProt P14780)
Excerpt: as §1

Neutrophil collagenase = Neutrophil collagenase (Homo sapiens, UniProt P22894)
Excerpt: as §1

Stromelysin-1 = Stromelysin-1 (Homo sapiens, UniProt P08254)
Excerpt: as §1

Stromelysin-2 = Stromelysin-2 (Homo sapiens, UniProt P09238)
Excerpt: as §1

Sequence of 72 kDa type IV collagenase (P08253 whole entry): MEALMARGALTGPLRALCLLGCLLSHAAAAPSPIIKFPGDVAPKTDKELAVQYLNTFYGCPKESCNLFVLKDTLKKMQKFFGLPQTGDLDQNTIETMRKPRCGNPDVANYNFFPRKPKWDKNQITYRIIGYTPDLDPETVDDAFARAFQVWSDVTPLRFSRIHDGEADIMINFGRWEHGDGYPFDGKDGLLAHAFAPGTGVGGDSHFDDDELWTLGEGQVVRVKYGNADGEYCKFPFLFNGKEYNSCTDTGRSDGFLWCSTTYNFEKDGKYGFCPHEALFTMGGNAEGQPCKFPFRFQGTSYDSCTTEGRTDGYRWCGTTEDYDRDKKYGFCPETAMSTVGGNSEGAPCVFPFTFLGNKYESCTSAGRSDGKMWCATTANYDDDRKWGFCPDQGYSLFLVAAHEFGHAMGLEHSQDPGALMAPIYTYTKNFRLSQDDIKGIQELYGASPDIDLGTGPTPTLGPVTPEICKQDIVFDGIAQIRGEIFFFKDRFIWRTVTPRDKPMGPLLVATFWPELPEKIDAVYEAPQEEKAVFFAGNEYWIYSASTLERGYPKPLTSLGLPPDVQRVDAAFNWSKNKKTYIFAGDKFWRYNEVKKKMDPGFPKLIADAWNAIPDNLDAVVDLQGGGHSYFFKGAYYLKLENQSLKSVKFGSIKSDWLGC
Sequence of Matrix metalloproteinase-9 (P14780 whole entry): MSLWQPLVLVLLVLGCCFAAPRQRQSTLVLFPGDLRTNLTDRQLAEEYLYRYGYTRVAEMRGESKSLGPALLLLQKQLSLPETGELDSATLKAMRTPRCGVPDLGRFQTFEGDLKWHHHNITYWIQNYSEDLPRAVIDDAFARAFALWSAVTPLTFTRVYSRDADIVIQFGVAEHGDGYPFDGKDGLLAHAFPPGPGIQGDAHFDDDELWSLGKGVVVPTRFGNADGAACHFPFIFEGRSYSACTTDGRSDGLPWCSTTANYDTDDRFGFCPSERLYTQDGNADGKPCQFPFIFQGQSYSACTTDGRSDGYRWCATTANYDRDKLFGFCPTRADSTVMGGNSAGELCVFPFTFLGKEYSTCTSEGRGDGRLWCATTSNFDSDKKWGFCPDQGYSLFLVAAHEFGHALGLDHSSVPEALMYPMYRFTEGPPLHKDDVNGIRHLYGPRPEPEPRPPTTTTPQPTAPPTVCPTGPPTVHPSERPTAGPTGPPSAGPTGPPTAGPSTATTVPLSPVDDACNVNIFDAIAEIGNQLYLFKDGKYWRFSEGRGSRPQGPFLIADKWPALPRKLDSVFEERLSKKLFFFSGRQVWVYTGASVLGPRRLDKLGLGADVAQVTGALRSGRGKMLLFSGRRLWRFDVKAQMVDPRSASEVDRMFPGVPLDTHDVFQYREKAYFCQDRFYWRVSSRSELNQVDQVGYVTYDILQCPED
Sequence of Angiotensin-converting enzyme (P12821 whole entry): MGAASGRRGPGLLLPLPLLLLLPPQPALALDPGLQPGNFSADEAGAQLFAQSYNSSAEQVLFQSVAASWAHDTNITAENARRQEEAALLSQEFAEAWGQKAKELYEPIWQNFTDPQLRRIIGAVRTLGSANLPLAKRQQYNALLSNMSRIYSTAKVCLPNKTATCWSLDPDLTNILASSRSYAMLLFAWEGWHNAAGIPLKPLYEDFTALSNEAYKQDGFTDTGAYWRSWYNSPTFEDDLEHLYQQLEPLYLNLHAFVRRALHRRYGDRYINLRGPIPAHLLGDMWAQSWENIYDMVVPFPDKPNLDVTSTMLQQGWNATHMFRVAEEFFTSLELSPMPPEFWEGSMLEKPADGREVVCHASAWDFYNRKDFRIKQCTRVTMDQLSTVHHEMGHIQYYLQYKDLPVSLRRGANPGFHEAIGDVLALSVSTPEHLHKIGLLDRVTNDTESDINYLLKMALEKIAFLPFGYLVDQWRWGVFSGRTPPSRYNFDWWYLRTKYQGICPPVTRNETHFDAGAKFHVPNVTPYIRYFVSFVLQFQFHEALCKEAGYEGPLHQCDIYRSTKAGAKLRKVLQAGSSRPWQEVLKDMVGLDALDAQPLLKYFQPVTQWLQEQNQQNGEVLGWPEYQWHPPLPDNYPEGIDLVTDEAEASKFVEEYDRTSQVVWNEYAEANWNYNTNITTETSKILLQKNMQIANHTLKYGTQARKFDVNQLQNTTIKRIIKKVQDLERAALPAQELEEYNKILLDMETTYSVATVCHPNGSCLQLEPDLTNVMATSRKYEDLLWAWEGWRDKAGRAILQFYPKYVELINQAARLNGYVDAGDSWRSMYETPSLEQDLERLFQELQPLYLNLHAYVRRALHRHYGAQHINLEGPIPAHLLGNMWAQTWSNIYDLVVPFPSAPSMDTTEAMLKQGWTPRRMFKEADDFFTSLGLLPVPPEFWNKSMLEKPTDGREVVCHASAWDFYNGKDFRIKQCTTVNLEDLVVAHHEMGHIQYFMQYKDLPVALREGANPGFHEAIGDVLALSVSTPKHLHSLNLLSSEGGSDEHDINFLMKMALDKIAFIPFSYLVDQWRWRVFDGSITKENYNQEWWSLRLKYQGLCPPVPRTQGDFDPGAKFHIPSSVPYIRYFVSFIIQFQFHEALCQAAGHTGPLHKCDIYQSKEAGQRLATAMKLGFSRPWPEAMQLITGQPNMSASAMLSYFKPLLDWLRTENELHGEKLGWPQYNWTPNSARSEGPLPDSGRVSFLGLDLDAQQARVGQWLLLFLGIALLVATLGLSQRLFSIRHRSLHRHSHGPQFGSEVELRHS
Sequence of Stromelysin-1 (P08254 whole entry): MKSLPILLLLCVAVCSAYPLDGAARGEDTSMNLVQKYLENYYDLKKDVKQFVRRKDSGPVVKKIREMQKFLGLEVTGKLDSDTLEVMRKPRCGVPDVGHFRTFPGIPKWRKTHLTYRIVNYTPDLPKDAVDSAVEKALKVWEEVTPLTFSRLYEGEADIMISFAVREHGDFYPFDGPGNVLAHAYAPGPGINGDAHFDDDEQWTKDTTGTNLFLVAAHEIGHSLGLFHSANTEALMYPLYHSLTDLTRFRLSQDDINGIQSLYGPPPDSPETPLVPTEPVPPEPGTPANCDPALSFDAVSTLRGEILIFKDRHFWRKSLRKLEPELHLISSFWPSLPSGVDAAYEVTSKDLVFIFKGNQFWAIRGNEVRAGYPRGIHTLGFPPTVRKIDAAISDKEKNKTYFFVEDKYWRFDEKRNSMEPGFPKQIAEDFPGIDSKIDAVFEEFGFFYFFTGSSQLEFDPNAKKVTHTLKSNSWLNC
Sequence of Macrophage metalloelastase (P39900 whole entry): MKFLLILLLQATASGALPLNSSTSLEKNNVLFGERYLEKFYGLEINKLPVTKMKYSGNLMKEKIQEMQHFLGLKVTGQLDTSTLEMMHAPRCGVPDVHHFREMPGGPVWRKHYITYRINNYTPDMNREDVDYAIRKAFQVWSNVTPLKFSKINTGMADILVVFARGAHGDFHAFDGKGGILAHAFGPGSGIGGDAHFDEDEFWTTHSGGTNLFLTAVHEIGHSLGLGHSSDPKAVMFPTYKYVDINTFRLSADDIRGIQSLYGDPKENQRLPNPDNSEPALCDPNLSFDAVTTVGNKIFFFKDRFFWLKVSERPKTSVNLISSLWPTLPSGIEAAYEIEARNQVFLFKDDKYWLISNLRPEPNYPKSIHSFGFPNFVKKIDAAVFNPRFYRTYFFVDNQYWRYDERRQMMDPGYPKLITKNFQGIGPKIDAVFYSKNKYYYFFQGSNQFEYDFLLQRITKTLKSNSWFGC
Sequence of Neutrophil collagenase (P22894 whole entry): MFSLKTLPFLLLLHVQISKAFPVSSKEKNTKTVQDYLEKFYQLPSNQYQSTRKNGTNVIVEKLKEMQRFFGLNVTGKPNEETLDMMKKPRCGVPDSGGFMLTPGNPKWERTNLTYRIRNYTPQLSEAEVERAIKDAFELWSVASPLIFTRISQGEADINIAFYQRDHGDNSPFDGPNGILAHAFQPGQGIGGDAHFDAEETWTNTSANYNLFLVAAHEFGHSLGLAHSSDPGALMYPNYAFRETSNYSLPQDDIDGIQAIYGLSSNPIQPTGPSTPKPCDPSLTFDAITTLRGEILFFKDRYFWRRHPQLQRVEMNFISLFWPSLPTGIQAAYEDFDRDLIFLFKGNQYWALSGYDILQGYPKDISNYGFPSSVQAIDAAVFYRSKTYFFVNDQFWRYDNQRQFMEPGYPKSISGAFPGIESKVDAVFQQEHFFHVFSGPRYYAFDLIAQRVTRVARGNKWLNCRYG
Sequence of Stromelysin-2 (P09238 whole entry): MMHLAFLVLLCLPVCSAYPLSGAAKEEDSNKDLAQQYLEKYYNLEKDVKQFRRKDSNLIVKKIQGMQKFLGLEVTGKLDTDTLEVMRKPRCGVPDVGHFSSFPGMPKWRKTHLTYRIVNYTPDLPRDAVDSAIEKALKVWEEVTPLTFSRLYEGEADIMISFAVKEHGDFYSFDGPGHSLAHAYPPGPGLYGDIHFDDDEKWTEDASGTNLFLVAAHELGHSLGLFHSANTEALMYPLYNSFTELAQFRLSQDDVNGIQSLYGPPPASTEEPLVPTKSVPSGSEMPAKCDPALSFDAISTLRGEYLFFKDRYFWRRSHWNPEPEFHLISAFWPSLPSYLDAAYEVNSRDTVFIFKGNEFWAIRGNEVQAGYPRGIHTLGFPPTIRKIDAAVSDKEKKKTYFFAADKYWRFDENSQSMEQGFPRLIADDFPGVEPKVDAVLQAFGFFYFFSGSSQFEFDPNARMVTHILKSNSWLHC
T1 sequence (P78536 215-477 S266A/N452Q): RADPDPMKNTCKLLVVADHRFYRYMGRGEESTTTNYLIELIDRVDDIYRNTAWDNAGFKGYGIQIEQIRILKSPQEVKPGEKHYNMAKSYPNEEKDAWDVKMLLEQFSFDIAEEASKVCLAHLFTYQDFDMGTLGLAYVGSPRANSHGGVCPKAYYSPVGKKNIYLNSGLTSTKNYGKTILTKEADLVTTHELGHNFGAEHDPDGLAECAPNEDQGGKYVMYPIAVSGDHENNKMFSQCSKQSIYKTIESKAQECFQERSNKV

`NC(=O)[C@@H](CCC(=O)O)NC(=O)[C@H](CCC(=O)O)NC(=O)C(Cc1cc(-c2ccc(-c3cccc(Cl)c3)cc2)no1)CP(=O)(O)c1ccc(Br)cc1` (some centres not stated) [RXP470, Compound 4] was tested, and the Ki [1] was 192 nM, the Ki [2] was > 10000 nM and the Ki (Collagenase 3) was 49 nM. For the same compound, the Ki [3] was > 10000 nM, the Ki (Interstitial collagenase) was > 10000 nM and the Ki [4] was 0.19 nM. It also gave a Ki (Matrilysin) of 626 nM, a Ki [5] of 140 nM and a Ki [6] of 850 nM. The Ki (Neutrophil collagenase) was 271 nM, the Ki (Stromelysin-1) was 40 nM and the Ki (Stromelysin-2) was 8.3 nM.
